Several values for one entry are separate records, joined by “and”; a condition that tells them apart may be missing. Equal values may be shown once. Values belong to the compound of their own block, whether it stands above or below them.
Structure (SMILES): Cc1nc2n(c(=O)c1CCN1CCC(c3noc4cc(F)ccc34)CC1)CCCC2
solubility (mole fraction) (in water, 298.15 K): 1e-07
solubility (mole fraction) (in water, 303.15 K): 1e-07
solubility (mole fraction) (in water, 308.15 K): 2e-07
solubility (mole fraction) (in water, 313.15 K): 2e-07
solubility (mole fraction) (in water, 318.15 K): 3e-07
solubility (mole fraction) (in water, 323.15 K): 4e-07
solubility (mole fraction) (in water, 328.15 K): 5e-07
solubility (mole fraction) (in water, 333.15 K): 6e-07

Structure (SMILES): COc1ccc([C@@H]2CC(=O)c3c(O)cc(O[C@@H]4O[C@H](CO[C@@H]5O[C@@H](C)[C@H](O)[C@@H](O)[C@H]5O)[C@@H](O)[C@H](O)[C@H]4O)cc3O2)cc1O
solubility (mole fraction) (in n-propanol, 293.15 K): 0.000142
solubility (mole fraction) (in n-propanol, 298.15 K): 0.000166
solubility (mole fraction) (in n-propanol, 303.15 K): 0.00019
solubility (mole fraction) (in n-propanol, 308.15 K): 0.000218
solubility (mole fraction) (in n-propanol, 313.15 K): 0.000252
solubility (mole fraction) (in n-propanol, 318.15 K): 0.000289
solubility (mole fraction) (in n-propanol, 323.15 K): 0.000329
solubility (mole fraction) (in n-propanol, 328.15 K): 0.000375
solubility (mole fraction) (in n-propanol, 333.15 K): 0.000425

Structure (SMILES): NCCC(=O)N[C@@H](Cc1cnc[nH]1)C(=O)O
solubility (mole fraction) (in water, 288.15 K): 0.0217
solubility (mole fraction) (in water, 293.15 K): 0.0224
solubility (mole fraction) (in water, 298.15 K): 0.0236
solubility (mole fraction) (in water, 303.15 K): 0.0249
solubility (mole fraction) (in water, 308.15 K): 0.0265
solubility (mole fraction) (in water, 313.15 K): 0.0287
solubility (mole fraction) (in water, 318.15 K): 0.0301
solubility (mole fraction) (in water, 323.15 K): 0.0324

Structure (SMILES): CC(C)C[C@H](CN)CC(=O)O
solubility (mole fraction) (in water, 283.15 K): 0.00349
solubility (mole fraction) (in water, 298.15 K): 0.00373
solubility (mole fraction) (in water, 308.15 K): 0.00397
solubility (mole fraction) (in water, 315.65 K): 0.00447
solubility (mole fraction) (in water, 323.15 K): 0.00486
solubility (mole fraction) (in water, 328.15 K): 0.00531
solubility (mole fraction) (in water, 338.15 K): 0.00641

Structure (SMILES): C/C=C/C=C/C(=O)O
solubility (mole fraction) (in n-propanol, 283.15 K): 0.0201
solubility (mole fraction) (in n-propanol, 288.15 K): 0.0283
solubility (mole fraction) (in n-propanol, 293.15 K): 0.0389
solubility (mole fraction) (in n-propanol, 298.15 K): 0.0519
solubility (mole fraction) (in n-propanol, 303.15 K): 0.0677
solubility (mole fraction) (in n-propanol, 308.15 K): 0.0851
solubility (mole fraction) (in n-propanol, 313.15 K): 0.0938
solubility (mole fraction) (in n-propanol, 318.15 K): 0.129
solubility (mole fraction) (in n-propanol, 323.15 K): 0.151

Structure (SMILES): O=c1[nH]cc(Cl)c(=O)[nH]1
solubility (mole fraction) (in water, 298.15 K): 0.000308

Structure (SMILES): C1CCCC1
solubility (mole fraction) (in water, 276.5 K): 4.62e-05
solubility (mole fraction) (in water, 282.2 K): 4.29e-05
solubility (mole fraction) (in water, 296.2 K): 4.17e-05

Structure (SMILES): COc1ccccc1OCC(O)COC(N)=O (stereo not drawn)
solubility (mole fraction) (in 1,4-dioxane, 298.15 K): 0.00331
solubility (mole fraction) (in PEG-400, 298.15 K): 0.0262
solubility (mole fraction) (in ethanol, 298.15 K): 0.00436
solubility (mole fraction) (in methanol, 298.15 K): 0.00425
solubility (mole fraction) (in propylene glycol, 298.15 K): 0.00914
solubility (mole fraction) (in water, 298.15 K): 0.000735

Structure (SMILES): CCCCC
solubility (mole fraction) (in water, 286.65 K): 1.1e-05
solubility (mole fraction) (in water, 295.45 K): 1.03e-05

Now from value to compound:

solubility (mole fraction) (in water, 298.15 K): 1.6e-08
Structure (SMILES): O=[N+]([O-])c1ccc(N/N=C/c2ccc[nH]2)c([N+](=O)[O-])c1

solubility (mole fraction) (in water, 293.15 K): 0.00155 and 0.00159 and 0.00152
solubility (mole fraction) (in water, 310.15 K): 0.00272
solubility (mole fraction) (in water, 318.15 K): 0.0036
Structure (SMILES): CC(=O)Nc1ccc(O)cc1

solubility (mole fraction) (in water, 298.15 K): 1.68e-07
Structure (SMILES): O=[N+]([O-])c1ccc(N/N=C/c2cccs2)cc1

solubility (mole fraction) (in water, 298.15 K): 1.4e-08
Structure (SMILES): O=[N+]([O-])c1ccc(N/N=C/c2ccco2)c([N+](=O)[O-])c1

solubility (mole fraction) (in acetone, 298.15 K): 0.29
solubility (mole fraction) (in ethanol, 298.15 K): 0.04
solubility (mole fraction) (in water, 298.15 K): 1.41e-07
Structure (SMILES): c1ccc(-c2cnc(-c3ccccc3)o2)cc1

solubility (mole fraction) (in water, 293.2 K): 7.36e-08
solubility (mole fraction) (in water, 298.2 K): 8.02e-08
solubility (mole fraction) (in water, 303.2 K): 9.16e-08
solubility (mole fraction) (in water, 308.2 K): 1.27e-07
solubility (mole fraction) (in water, 313.2 K): 1.44e-07
Structure (SMILES): Cc1ccc(-c2cc(C(F)(F)F)nn2-c2ccc(S(N)(=O)=O)cc2)cc1

solubility (mole fraction) (in 1,4-dioxane, 298.15 K): 0.0669
solubility (mole fraction) (in acetonitrile, 298.15 K): 0.0473
solubility (mole fraction) (in water, 298.15 K): 1e-06
Structure (SMILES): O=C1C[C@@H](c2ccc(O)cc2)Oc2cc(O)cc(O)c21

solubility (mole fraction) (in methanol, 283.15 K): 0.00517
solubility (mole fraction) (in methanol, 293.15 K): 0.00754
solubility (mole fraction) (in methanol, 303.15 K): 0.0102
solubility (mole fraction) (in methanol, 313.15 K): 0.0149
solubility (mole fraction) (in methanol, 323.15 K): 0.0223
Structure (SMILES): CCc1ccc(CCOc2ccc(CC3SC(=O)NC3=O)cc2)nc1.Cl (stereo not drawn)

solubility (mole fraction) (in water, 298.15 K): 0.000272
Structure (SMILES): O=c1[nH]cc(Br)c(=O)[nH]1

solubility (mole fraction) (in PEG-400, 298.15 K): 0.0129
solubility (mole fraction) (in PEG-400, 303.15 K): 0.0132
solubility (mole fraction) (in PEG-400, 308.15 K): 0.0134
solubility (mole fraction) (in PEG-400, 313.15 K): 0.0136
solubility (mole fraction) (in PEG-400, 318.15 K): 0.0139
solubility (mole fraction) (in n-propanol, 293.15 K): 3.88e-05
solubility (mole fraction) (in n-propanol, 298.15 K): 4.71e-05
solubility (mole fraction) (in n-propanol, 303.15 K): 5.87e-05
solubility (mole fraction) (in n-propanol, 308.15 K): 7.21e-05
solubility (mole fraction) (in n-propanol, 313.15 K): 9.13e-05
solubility (mole fraction) (in propylene glycol, 298.15 K): 0.00047
Structure (SMILES): Nc1ccc(S(=O)(=O)Nc2ncccn2)cc1

solubility (mole fraction) (in water, 298.15 K): 1.73e-07
Structure (SMILES): O=[N+]([O-])c1ccc(N/N=C/c2ccc[nH]2)cc1

— BigSolDB 2.1
